According to patent US20250326739A1, “CD38 MODULATORS AND USES THEREOF” (Aeovian Pharmaceuticals, Inc., priority 2022, published 2025):

What was measured:
mouse CD38 = mouse CD38 (Mus musculus (Mouse), UniProt P56528); assay: NAD+ cyclase activity assay with mouse recombinant CD38 protein; type: biochemical; details: 0.6 nM mouse CD38, 15.8 μM e-NAD substrate, fluorescence read-out
Method in brief: (§1)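 Recombinant CD38, 1.9 nM human or 0.6 nM mouse, preincubated 30 min at room temperature with compound (12-point, threefold dilutions) in 40 mM HEPES pH 7.5, 250 mM sucrose, 0.01% Tween; 15.8 μM ε-NAD then added. Fluorescence (300/410 nm) followed kinetically; slopes normalized to controls, IC50 from 4-parameter fit.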

human CD38 = human CD38 (Homo sapiens (Human), UniProt P28907); assay: NAD+ cyclase activity assay with human recombinant CD38 protein; type: biochemical; details: 1.9 nM human CD38, 15.8 μM e-NAD substrate, fluorescence read-out
Sequence of human CD38 (P28907 whole entry): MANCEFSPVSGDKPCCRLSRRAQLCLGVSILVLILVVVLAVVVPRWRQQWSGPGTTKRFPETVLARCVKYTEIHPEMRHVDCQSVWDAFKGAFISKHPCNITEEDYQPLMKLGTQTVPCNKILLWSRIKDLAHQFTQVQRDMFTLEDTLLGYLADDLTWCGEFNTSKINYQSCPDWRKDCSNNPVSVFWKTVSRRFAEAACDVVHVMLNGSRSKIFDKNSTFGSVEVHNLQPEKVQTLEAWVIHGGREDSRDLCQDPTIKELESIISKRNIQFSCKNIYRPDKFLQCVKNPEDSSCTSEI
Method in brief: as §1

Sequence of mouse CD38 (P56528 whole entry): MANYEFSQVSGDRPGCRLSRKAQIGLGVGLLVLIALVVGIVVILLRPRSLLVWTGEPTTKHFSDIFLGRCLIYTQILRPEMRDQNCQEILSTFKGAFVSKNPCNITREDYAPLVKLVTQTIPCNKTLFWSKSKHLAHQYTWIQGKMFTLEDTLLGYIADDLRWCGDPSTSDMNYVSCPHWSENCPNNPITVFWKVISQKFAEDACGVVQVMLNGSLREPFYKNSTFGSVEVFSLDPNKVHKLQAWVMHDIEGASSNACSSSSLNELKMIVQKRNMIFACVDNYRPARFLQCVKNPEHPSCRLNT

| IC50 (mouse CD38) [nM] | IC50 (human CD38) [nM] | Structure (SMILES) |
| --- | --- | --- |
| 1 to 10 | 30 to 100 | Cc1cc(C(=O)N[C@@H]2CCC(C)(C)OC2)nc(-n2ccnc2)c1 [Compound 64A, (R)—N-(6,6-Dimethyltetrahydro-2H-pyran-3-yl)-6-(1H-imidazol-1-yl)-4-methylpicolinamide] |
| 1 to 10 | 30 to 100 | Cc1cc(C(=O)NC2CCC2)nc(-n2ccnc2)c1 [Compound 12A, N-Cyclobutyl-6-(1H-imidazol-1-yl)-4-methylpicolinamide] |
| 1 to 10 | 100 to 1000 | Cc1cc(C(=O)NC2COCC(F)(F)C2)nc(-n2ccnc2)c1 (stereo in doubt) [Compound 67A, (R)—N-(5,5-Ddifluorotetrahydro-2H-pyran-3-yl)-6-(1H-imidazol-1-yl)-4-methylpicolinamide] |
| 1 to 10 | < 30 | Cc1cc(C(=O)N[C@@H]2CCS(=O)(=O)C2)nc(-n2ccnc2)c1 [Compound 86A, (R)—N-(1,1-Dioxidotetrahydrothiophen-3-yl)-6-(1H-imidazol-1-yl)-4-methylpicolinamide] |
| 10 to 100 | 100 to 1000 | Cc1ccc(-n2ccnc2)nc1C(=O)N[C@@H]1CCCOC1 [Compound 81A, (R)-6-(1H-Imidazol-1-yl)-3-methyl-N-(tetrahydro-2H-pyran-3-yl)picolinamide] |
